Data on two compounds can be found in article PMC6274539, “Photoactivatable Caged Prodrugs of VEGFR-2 Kinase Inhibitors” (Molecules, 2016).

Series [1] addresses T1, VEGFR-2 (Homo sapiens, UniProt P35968).
T1 construct: determined using VEGFR-2 protein kinase by a radiometric ^33PanQinase® assay; purchased ProQinase (Freiburg, Germany)
The series can be described thus: radiometric 33PanQinase VEGFR-2 kinase assay (ProQinase). The settings on record: 10 semi-log concentrations, single samples, 1% DMSO. The format is biochemical. How it is done: As predicted by molecular modeling, insertion of the protecting group DMNB should diminish the inhibitory activity both of the maleimide 1 and the carbazole 3. […] The IC50 values towards VEGFR-2 were determined (Table 1).
The VEGFR-2 IC50 profile for 1, 3, 4 and 5 was determined using VEGFR-2 protein kinase by a radiometric ^33PanQinase® assay. […] Prior to testing, the compounds were dissolved to prepare 1 × 10^−2 M stock solutions in 100% DMSO. The final DMSO concentration in the reaction cocktails was 1% in all cases. Analyses were performed by ProQinase (Freiburg, Germany).

Series [2] has as its target PLK1 (Okadaic Acid) (Homo sapiens, UniProt P53350). Nature of the series: kinase profiling, radioactive filter binding assay. The format is biochemical. Particulars: 0.1 µM compound, assay duplicates; read-out: residual activity of PLK1 (Okadaic Acid), mean percentage activity. How it is done: (§1) To compare the active inhibitors 1 and 3, a selectivity profile over 79 kinases was recorded. The residual kinase activities are presented as a heatmap (Figure 6, for raw data see Supplementary Table S1).
(§2) Compounds 1 and 3 were screened against 79 kinases. The used method was a radioactive filter binding assay using ^33P ATP, for details see references. The substances were dissolved in DMSO at tested concentration of 0.1 µM. The mean percentage residual kinase activity and standard deviations of assay duplicates were determined. Analyses were performed by the International Center for Kinase Profiling at the University of Dundee, UK.

For series [3], the target named is SmMLCK (Homo sapiens, UniProt Q15746). Nature of the series: kinase profiling, radioactive filter binding assay. The format is biochemical. Particulars: 0.1 µM compound, assay duplicates; read-out: residual activity of SmMLCK, mean percentage activity. How it is done:
as §1, §2

Series [4] relates to PC-3 cells. Nature of the series: cellular uptake by fluorescence microscopy (cell staining). The format is cell-based. Particulars: live PC-3 cells, 10 µM, 30 min, autofluorescence. How it is done:
Next, we investigated the cellular bioavailability of the caged prodrugs. For this purpose, we used the autofluorescence of the carbazole 3 and its caged derivative 5. The emission spectra of both compounds are shown in the Supplementary Figure S6. The fluorescence microscopy was used to explore the uptake of the compounds into the cells. Live PC-3 cells were stained with 10 µM solutions of 3 or 5, and then fixed with formalin. Subsequently, the cell nuclei were counterstained with 1 µg/mL DAPI.
PC-3 cells were stained with the carbazole 3 and its caged derivative 5. For this purpose, the cells were seeded to give 15,000 cells in 50 µL per well into 96-well half area microplate (Ref.: 675986, Greiner bio-one, Kremsmünster, Austria). The plate was incubated for 48 h at 37 °C in a humidified atmosphere with 5% CO2. Compounds 3 and 5 were dissolved in DMEM:Hams F12 (1:1) medium with 5% FCS and added to the cells to give the endconcentration of 10 µM, respectively. The cells were incubated with the compounds for 30 min at 37 °C. After that, the cells were washed twice with PBS and fixed with 3.3% formalin for 15 min. […] After 30 min incubation at 37 °C, the cells were washed with PBS and the fluorescence images were taken at the ImageXpress® Micro XL (Molecular Devices, Sunnyvale CA, USA). […]

For series [5], the target named is IR-HIS (Homo sapiens, UniProt P06213). The series can be described thus: kinase profiling, radioactive filter binding assay. Type of series: biochemical. Particulars: 0.1 µM compound, assay duplicates; read-out: residual activity of IR-HIS, mean percentage activity. The procedure, abridged:
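Each substance, at 0.1 µM in DMSO, was screened by a 33P-ATP radioactive filter binding assay.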

Series [6] can be described thus: UV stability at 365 nm in DMSO (HPLC, LC-MS). The settings on record: 1 mM in DMSO, 5.4 W, up to 10 min.
Method: HPLC and LC-MS analysis were used for content determination.
Aliquots were diluted 1:10 with methanol and analyzed by HPLC.

Chain of PLK1 (Okadaic Acid) (P53350 whole entry): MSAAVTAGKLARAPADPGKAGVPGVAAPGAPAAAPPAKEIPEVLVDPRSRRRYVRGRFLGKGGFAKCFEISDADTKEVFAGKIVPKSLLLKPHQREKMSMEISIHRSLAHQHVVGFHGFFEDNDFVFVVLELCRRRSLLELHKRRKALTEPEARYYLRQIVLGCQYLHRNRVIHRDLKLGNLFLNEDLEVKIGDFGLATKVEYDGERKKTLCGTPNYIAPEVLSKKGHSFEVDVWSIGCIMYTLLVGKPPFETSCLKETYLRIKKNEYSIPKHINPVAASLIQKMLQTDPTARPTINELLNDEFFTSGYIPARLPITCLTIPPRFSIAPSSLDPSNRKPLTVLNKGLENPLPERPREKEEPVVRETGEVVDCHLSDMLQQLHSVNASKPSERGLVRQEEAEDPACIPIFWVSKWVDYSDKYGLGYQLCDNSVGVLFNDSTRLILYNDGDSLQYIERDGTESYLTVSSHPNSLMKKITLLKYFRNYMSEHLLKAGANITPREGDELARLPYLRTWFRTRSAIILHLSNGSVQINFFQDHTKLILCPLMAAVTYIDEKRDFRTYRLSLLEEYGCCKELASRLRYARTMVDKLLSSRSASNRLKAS
T1 sequence (P35968 20-1356): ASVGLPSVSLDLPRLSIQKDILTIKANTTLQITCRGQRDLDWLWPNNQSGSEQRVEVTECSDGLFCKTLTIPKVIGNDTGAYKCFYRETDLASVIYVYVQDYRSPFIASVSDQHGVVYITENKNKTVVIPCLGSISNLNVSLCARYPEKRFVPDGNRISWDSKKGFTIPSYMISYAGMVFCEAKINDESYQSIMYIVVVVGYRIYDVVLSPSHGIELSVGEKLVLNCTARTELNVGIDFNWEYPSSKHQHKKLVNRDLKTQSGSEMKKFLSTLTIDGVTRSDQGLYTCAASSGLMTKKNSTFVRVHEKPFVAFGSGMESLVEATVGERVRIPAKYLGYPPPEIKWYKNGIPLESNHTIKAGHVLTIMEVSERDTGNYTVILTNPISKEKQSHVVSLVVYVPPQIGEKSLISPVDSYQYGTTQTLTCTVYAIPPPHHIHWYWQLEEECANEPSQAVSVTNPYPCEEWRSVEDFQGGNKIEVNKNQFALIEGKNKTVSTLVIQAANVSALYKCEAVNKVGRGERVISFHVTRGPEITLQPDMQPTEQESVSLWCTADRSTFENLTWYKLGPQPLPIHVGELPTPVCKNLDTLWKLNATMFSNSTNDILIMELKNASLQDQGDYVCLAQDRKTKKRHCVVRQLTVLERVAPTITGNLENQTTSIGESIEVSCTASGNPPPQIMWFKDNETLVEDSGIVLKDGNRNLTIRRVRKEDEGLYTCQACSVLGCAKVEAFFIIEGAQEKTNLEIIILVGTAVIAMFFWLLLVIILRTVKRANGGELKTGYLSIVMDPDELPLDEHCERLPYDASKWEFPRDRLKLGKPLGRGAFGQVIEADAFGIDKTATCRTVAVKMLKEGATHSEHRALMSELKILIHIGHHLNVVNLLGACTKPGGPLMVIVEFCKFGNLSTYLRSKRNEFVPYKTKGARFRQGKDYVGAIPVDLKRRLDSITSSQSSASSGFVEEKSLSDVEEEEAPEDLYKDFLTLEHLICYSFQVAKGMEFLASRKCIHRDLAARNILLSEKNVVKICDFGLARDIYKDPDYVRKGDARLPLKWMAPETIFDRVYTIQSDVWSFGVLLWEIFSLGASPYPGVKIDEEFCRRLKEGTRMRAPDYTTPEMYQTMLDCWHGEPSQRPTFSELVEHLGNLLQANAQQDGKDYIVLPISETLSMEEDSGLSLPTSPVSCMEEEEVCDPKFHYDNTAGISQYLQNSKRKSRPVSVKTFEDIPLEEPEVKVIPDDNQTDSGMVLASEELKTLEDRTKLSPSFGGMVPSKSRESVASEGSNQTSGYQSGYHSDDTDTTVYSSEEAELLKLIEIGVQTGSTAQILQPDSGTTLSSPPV
Chain of SmMLCK (Q15746 923-1914): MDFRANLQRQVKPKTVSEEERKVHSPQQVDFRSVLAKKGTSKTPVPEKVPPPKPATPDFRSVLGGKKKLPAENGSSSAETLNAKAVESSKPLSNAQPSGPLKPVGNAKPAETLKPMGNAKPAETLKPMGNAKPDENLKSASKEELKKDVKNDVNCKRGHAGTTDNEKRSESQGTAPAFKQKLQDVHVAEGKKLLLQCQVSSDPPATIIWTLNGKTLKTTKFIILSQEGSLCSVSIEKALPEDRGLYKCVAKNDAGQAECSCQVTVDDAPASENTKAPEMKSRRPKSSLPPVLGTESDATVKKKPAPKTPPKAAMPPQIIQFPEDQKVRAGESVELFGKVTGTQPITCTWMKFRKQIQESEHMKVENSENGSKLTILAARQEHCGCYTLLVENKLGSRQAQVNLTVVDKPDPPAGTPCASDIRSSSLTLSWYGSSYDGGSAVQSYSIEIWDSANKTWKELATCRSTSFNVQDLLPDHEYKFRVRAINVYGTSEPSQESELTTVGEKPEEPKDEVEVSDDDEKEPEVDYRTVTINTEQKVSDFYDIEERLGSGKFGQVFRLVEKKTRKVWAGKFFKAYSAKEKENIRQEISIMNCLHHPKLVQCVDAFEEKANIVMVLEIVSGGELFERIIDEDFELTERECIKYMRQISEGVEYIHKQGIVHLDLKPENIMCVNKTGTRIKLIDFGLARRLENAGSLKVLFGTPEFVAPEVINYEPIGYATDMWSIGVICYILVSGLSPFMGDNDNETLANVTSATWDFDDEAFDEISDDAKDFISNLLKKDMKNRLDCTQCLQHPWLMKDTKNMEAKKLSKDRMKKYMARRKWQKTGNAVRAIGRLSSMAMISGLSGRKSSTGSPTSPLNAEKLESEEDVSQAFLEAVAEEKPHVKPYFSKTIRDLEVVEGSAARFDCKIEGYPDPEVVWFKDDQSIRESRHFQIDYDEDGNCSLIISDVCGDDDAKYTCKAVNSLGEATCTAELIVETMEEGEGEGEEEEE
Chain of IR-HIS (P06213 28-1382): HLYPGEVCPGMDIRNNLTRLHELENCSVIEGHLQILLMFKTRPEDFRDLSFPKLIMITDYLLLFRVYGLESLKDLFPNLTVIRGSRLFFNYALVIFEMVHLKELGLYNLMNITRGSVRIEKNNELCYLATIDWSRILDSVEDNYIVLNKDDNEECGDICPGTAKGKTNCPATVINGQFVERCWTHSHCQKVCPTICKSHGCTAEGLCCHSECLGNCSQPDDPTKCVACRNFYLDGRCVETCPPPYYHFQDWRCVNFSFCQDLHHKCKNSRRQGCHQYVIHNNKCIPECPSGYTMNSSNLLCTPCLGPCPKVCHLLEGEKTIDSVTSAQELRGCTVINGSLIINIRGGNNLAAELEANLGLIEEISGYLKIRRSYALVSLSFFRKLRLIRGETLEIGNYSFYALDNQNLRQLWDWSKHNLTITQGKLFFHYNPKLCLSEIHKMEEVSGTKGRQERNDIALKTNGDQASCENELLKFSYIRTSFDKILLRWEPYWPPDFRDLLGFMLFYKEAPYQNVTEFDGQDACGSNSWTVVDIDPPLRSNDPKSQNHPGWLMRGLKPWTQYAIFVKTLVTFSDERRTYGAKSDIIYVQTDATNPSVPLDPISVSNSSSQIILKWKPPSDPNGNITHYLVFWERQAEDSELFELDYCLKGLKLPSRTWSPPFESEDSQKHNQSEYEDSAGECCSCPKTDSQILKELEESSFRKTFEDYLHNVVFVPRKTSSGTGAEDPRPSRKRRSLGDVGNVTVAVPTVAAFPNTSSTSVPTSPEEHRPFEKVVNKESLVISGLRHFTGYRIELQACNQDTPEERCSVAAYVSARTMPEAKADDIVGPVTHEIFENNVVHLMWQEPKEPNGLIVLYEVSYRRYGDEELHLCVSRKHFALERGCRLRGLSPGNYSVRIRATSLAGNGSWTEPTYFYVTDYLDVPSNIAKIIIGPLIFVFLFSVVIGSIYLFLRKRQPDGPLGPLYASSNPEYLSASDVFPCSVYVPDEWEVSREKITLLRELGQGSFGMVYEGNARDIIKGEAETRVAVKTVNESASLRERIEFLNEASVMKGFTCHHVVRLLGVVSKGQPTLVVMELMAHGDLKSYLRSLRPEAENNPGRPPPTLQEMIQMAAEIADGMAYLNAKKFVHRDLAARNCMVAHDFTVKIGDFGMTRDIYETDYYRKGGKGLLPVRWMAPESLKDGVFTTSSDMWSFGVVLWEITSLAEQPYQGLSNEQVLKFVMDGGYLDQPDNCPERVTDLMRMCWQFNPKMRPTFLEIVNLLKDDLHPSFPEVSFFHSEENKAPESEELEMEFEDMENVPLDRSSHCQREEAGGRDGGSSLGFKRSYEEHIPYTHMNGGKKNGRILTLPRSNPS

In the case of `COc1cc(C2=C(c3c[nH]c4ccccc34)C(=O)NC2=O)cc(OC)c1OC` [Compound 1, 3-(1H-Indol-3-yl)-4-(3,4,5-trimethoxyphenyl)-1H-pyrrole-2,5-dione], the IC50 in series [1] was found to be 5 nM. Further, the remaining activity at 0.1 µM amounted to 85% in series [2] and 60% in series [3].
As to `COc1cc2c3c(c4c5ccccc5[nH]c4c2c(OC)c1OC)C(=O)NC3=O` [Compound 3, 5,6,7-Trimethoxybenzo[a]pyrrolo[3,4-c]carbazole-1,3(2H,8H)-dione], the melting point was 275 °C. Also, the IC50 in series [1] turned out to be 152 nM. The cellular uptake result in series [4] was “taken up into the cells, but not within the cell nuclei”. Moreover, the remaining activity at 0.1 µM in series [5] came to 88%. The remaining activity at 0.1 µM in series [2] is 83%. Moreover, the remaining activity at 0.1 µM in series [3] amounted to 30%. In series [6], the “UV stability under irradiation at 365 nm” value was “quite stable”.
